{"source": "patent US7169982B2", "about": "“Starch” (Basf Plant Science GmbH, priority 2001, dated 2007)", "origin": "cited, not measured here", "key": {"[1]": {"test_system": "maize starch synthase SSIIb-2 (SEQ ID NO:7) mutant D21N", "details": "read-out: Km (ADPGlc)"}, "[2]": {"test_system": "maize starch synthase SSIIa (SEQ ID NO:8) mutant K193R", "details": "for Km: read-out: Km for ADPG"}, "[3]": {"test_system": "maize starch synthase SSIIa, wild-type, SEQ ID NO:8", "details": "for Km: read-out: Km for ADPG"}, "[4]": {"test_system": "maize starch synthase SSIIa (SEQ ID NO:8) mutant K497Q", "details": "for Km: read-out: Km for ADPG"}, "[5]": {"test_system": "maize starch synthase SSIIb-2 (SEQ ID NO:7) mutant D139E", "details": "read-out: Km (ADPGlc)"}, "[6]": {"test_system": "maize starch synthase SSIIa (SEQ ID NO:8) mutant K193Q", "details": "for Km: read-out: Km for ADPG"}, "[7]": {"test_system": "maize starch synthase SSIIa (SEQ ID NO:8) mutant K193E", "details": "for Km: read-out: Km for ADPG"}, "[8]": {"test_system": "maize starch synthase SSIIb-2 (SEQ ID NO:7) mutant D21E", "details": "amylopectin as primer, 5 mg/ml; read-out: Km (ADPGlc)"}, "[9]": {"test_system": "maize starch synthase SSIIb-2 (SEQ ID NO:7) mutant E391D", "details": "read-out: Km (ADPGlc)"}, "[10]": {"test_system": "maize starch synthase SSIIb-2 (N-terminally truncated form of mSSIIb produced in E. coli), non-mutant, SEQ ID NO:7", "details": "read-out: Km (ADPGlc)"}}, "note": "Where two headings read alike, the source gives them in different places."}
{"smiles": "Nc1ncnc2c1ncn2[C@@H]1O[C@H](COP(=O)(O)OP(=O)(O)O[C@H]2O[C@H](CO)[C@@H](O)[C@H](O)[C@H]2O)[C@@H](O)[C@H]1O", "note": "[ADPGlc, ADP-glucose]", "values": [{"measurement": "Km", "setting": "[1]; amylopectin as primer, 5 mg/ml", "value": "1580 ± 110", "unit": "µM"}, {"measurement": "Km", "setting": "[1]; glycogen as primer, 20 mg/ml", "value": "1480 ± 30", "unit": "µM"}, {"measurement": "Vmax", "setting": "[2]; amylopectin as primer", "value": "18.2 ± 0.91", "unit": "μmol/min/mg protein"}, {"measurement": "Km", "setting": "[2]; amylopectin as primer", "value": "150 ± 10", "unit": "µM"}, {"measurement": "Vmax", "setting": "[2]; glycogen as primer", "value": "42.27 ± 3.01", "unit": "μmol/min/mg protein"}, {"measurement": "Km", "setting": "[2]; glycogen as primer", "value": "150 ± 20", "unit": "µM"}, {"measurement": "Vmax", "setting": "[3]; amylopectin as primer", "value": "49.9 ± 4.06", "unit": "μmol/min/mg protein"}, {"measurement": "Km", "setting": "[3]; amylopectin as primer", "value": "110 ± 10", "unit": "µM"}, {"measurement": "Vmax", "setting": "[3]; glycogen as primer", "value": "34.47 ± 1.70", "unit": "μmol/min/mg protein"}, {"measurement": "Km", "setting": "[3]; glycogen as primer", "value": "120 ± 10", "unit": "µM"}, {"measurement": "Vmax", "setting": "[4]; amylopectin as primer", "value": "13.5 ± 0.21", "unit": "μmol/min/mg protein"}, {"measurement": "Km", "setting": "[4]; amylopectin as primer", "value": "5620 ± 230", "unit": "µM"}, {"measurement": "Vmax", "setting": "[4]; glycogen as primer", "value": "23.8 ± 2.5", "unit": "μmol/min/mg protein"}, {"measurement": "Km", "setting": "[4]; glycogen as primer", "value": "6910 ± 330", "unit": "µM"}, {"measurement": "Km", "setting": "[5]; amylopectin as primer, 5 mg/ml", "value": "90 ± 30", "unit": "µM"}, {"measurement": "Km", "setting": "[5]; glycogen as primer, 20 mg/ml", "value": "70 ± 20", "unit": "µM"}, {"measurement": "Vmax", "setting": "[6]; amylopectin as primer", "value": "17.4 ± 1.58", "unit": "μmol/min/mg protein"}, {"measurement": "Km", "setting": "[6]; amylopectin as primer", "value": "130 ± 10", "unit": "µM"}, {"measurement": "Vmax", "setting": "[6]; glycogen as primer", "value": "6.20 ± 0.01", "unit": "μmol/min/mg protein"}, {"measurement": "Km", "setting": "[6]; glycogen as primer", "value": "100 ± 10", "unit": "µM"}, {"measurement": "Vmax", "setting": "[7]; amylopectin as primer", "value": "10.53 ± 0.5", "unit": "μmol/min/mg protein"}, {"measurement": "Km", "setting": "[7]; amylopectin as primer", "value": "220 ± 10", "unit": "µM"}, {"measurement": "Vmax", "setting": "[7]; glycogen as primer", "value": "25.45 ± 0.08", "unit": "μmol/min/mg protein"}, {"measurement": "Km", "setting": "[7]; glycogen as primer", "value": "170 ± 20", "unit": "µM"}, {"measurement": "Km", "setting": "[8]", "value": "130 ± 30", "unit": "µM"}, {"measurement": "Km", "setting": "[9]; amylopectin as primer, 5 mg/ml", "value": "1370 ± 140", "unit": "µM"}, {"measurement": "Km", "setting": "[9]; glycogen as primer, 20 mg/ml", "value": "1180 ± 140", "unit": "µM"}, {"measurement": "Km", "setting": "[10]; amylopectin as primer, 5 mg/ml", "value": "160 ± 30", "unit": "µM"}, {"measurement": "Km", "setting": "[10]; glycogen as primer, 20 mg/ml", "value": "130 ± 20", "unit": "µM"}]}
